Experimental findings from ChEMBL document CHEMBL4613212, “Insights of synthetic analogues of anti-leprosy agents” (Bioorg Med Chem, 2019) are described below.

For data set [1], the system named is Mycobacterium leprae. Description: Antimicrobial activity against Mycobacterium leprae. The format is functional.
The test system of data set [2] is Mycobacterium leprae. As to the kind of experiment: Anti-leprotic activity against Mycobacterium leprae primary cultures at 4 weeks assessed as ATP level per 10^7 cells at 10.0 mg/L measured by bioluminescence assay (reference value: 314 +/- 46 pg). The format is functional.
Data set [3] has as its system Mycobacterium leprae. Description: Anti-leprotic activity against Mycobacterium leprae primary cultures at 4 weeks assessed as [3H]thymidine uptake per 5 times 10^7 cells at 20.0 mg/L (reference value: 0.95 +/- 0.01 pmol). It counts as functional.
Data set [4] concerns Mycobacterium leprae. Description: Anti-leprotic activity against Mycobacterium leprae subcultures at 4 weeks assessed as [3H]thymidine uptake per 5 times 10^7 cells at 15.0 mg/L (reference value: 1.28 +/- 0.14 pmol). It counts as functional.
In data set [5] the test system is Mycobacterium leprae. As to the kind of experiment: Anti-leprotic activity against Mycobacterium leprae subcultures at 4 weeks assessed as ATP level per 10^7 cells at 5.0 mg/L measured by bioluminescence assay (reference value: 462 +/- 64 pg). It counts as functional.
Data set [6] concerns Mycobacterium leprae. As to the kind of experiment: Anti-leprotic activity against Mycobacterium leprae subcultures at 4 weeks assessed as ATP level per 10^7 cells at 20.0 mg/L measured by bioluminescence assay (reference value: 462 +/- 64 pg). It counts as functional.
The subject of data set [7] is Mycobacterium leprae. As to the kind of experiment: Anti-leprotic activity against Mycobacterium leprae subcultures at 4 weeks assessed as ATP level per 10^7 cells at 1.0 mg/L measured by bioluminescence assay (reference value: 462 +/- 64 pg). It counts as functional.
The test system of data set [8] is Mycobacterium leprae. Description: Anti-leprotic activity against Mycobacterium leprae subcultures at 4 weeks assessed as [3H]thymidine uptake per 5 times 10^7 cells at 10.0 mg/L (reference value: 1.28 +/- 0.14 pmol). The format is functional.
Data set [9] relates to Mycobacterium leprae. Description: Anti-leprotic activity against Mycobacterium leprae subcultures at 4 weeks assessed as ATP level per 10^7 cells at 15.0 mg/L measured by bioluminescence assay (reference value: 462 +/- 64 pg). It counts as functional.
In data set [10] the test system is Mycobacterium leprae. Description: Anti-leprotic activity against Mycobacterium leprae primary cultures at 4 weeks assessed as ATP level per 10^7 cells at 0.5 mg/L measured by bioluminescence assay (reference value: 314 +/- 46 pg). It counts as functional.
In data set [11] the test system is Mycobacterium leprae. As to the kind of experiment: Anti-leprotic activity against Mycobacterium leprae subcultures at 4 weeks assessed as [3H]thymidine uptake per 5 times 10^7 cells at 0.5 mg/L (reference value: 1.28 +/- 0.14 pmol). The format is functional.
Data set [12] concerns Mycobacterium leprae. As to the kind of experiment: Anti-leprotic activity against Mycobacterium leprae subcultures at 4 weeks assessed as ATP level per 10^7 cells at 0.5 mg/L measured by bioluminescence assay (reference value: 462 +/- 64 pg). It counts as functional.
Data set [13] relates to Mycobacterium leprae. Description: Anti-leprotic activity against Mycobacterium leprae primary cultures at 4 weeks assessed as [3H]thymidine uptake per 5 times 10^7 cells at 10.0 mg/L (reference value: 0.95 +/- 0.01 pmol). The format is functional.
In data set [14] the test system is Mycobacterium leprae. Description: Anti-leprotic activity against Mycobacterium leprae primary cultures at 4 weeks assessed as ATP level per 10^7 cells at 15.0 mg/L measured by bioluminescence assay (reference value: 314 +/- 46 pg). It counts as functional.
For data set [15], the system named is Mycobacterium leprae. As to the kind of experiment: Anti-leprotic activity against Mycobacterium leprae subcultures at 4 weeks assessed as [3H]thymidine uptake per 5 times 10^7 cells at 1.0 mg/L (reference value: 1.28 +/- 0.14 pmol). It counts as functional.
Data set [16] deals with Mycobacterium leprae. Description: Anti-leprotic activity against Mycobacterium leprae subcultures at 4 weeks assessed as [3H]thymidine uptake per 5 times 10^7 cells at 5.0 mg/L (reference value: 1.28 +/- 0.14 pmol). The format is functional.
The test system of data set [17] is Mycobacterium leprae. As to the kind of experiment: Anti-leprotic activity against Mycobacterium leprae primary cultures at 4 weeks assessed as [3H]thymidine uptake per 5 times 10^7 cells at 1.0 mg/L (reference value: 0.95 +/- 0.01 pmol). It counts as functional.
Data set [18] has as its system Mycobacterium leprae. Description: Anti-leprotic activity against Mycobacterium leprae primary cultures at 4 weeks assessed as [3H]thymidine uptake per 5 times 10^7 cells at 15.0 mg/L (reference value: 0.95 +/- 0.01 pmol). It counts as functional.
In data set [19] the test system is Mycobacterium leprae. Description: Anti-leprotic activity against Mycobacterium leprae primary cultures at 4 weeks assessed as [3H]thymidine uptake per 5 times 10^7 cells at 0.5 mg/L (reference value: 0.95 +/- 0.01 pmol). It counts as functional.
Data set [20] deals with Mycobacterium leprae. As to the kind of experiment: Anti-leprotic activity against Mycobacterium leprae subcultures at 4 weeks assessed as ATP level per 10^7 cells at 10.0 mg/L measured by bioluminescence assay (reference value: 462 +/- 64 pg). The format is functional.
Data set [21] relates to Mycobacterium leprae. As to the kind of experiment: Anti-leprotic activity against Mycobacterium leprae primary cultures at 4 weeks assessed as ATP level per 10^7 cells at 5.0 mg/L measured by bioluminescence assay (reference value: 314 +/- 46 pg). The format is functional.
In data set [22] the test system is Mycobacterium leprae. Description: Anti-leprotic activity against Mycobacterium leprae primary cultures at 4 weeks assessed as [3H]thymidine uptake per 5 times 10^7 cells at 5.0 mg/L (reference value: 0.95 +/- 0.01 pmol). It counts as functional.
Data set [23] has as its system Mycobacterium leprae. As to the kind of experiment: Anti-leprotic activity against Mycobacterium leprae subcultures at 4 weeks assessed as [3H]thymidine uptake per 5 times 10^7 cells at 20.0 mg/L (reference value: 1.28 +/- 0.14 pmol). The format is functional.
For data set [24], the system named is Mycobacterium leprae. Description: Anti-leprotic activity against Mycobacterium leprae primary cultures at 4 weeks assessed as ATP level per 10^7 cells at 20.0 mg/L measured by bioluminescence assay (reference value: 314 +/- 46 pg). The format is functional.
In data set [25] the test system is Mycobacterium leprae. Description: Anti-leprotic activity against Mycobacterium leprae primary cultures at 4 weeks assessed as ATP level per 10^7 cells at 1.0 mg/L measured by bioluminescence assay (reference value: 314 +/- 46 pg). It counts as functional.
Data set [26] has as its system Monocyte. Description: Antiinflammatory activity in human monocytes assessed as inhibition of LPS-induced TNFaplha production at 50 uM preincubated for 15 mins followed by LPS addition and measured after 4 hrs by ELISA relative to control. It counts as functional. On the technique in general: In an ELISA, binding on a coated surface is turned into a signal by an enzyme label.

Data set [27] concerns Monocyte. Description: Antiinflammatory activity in human monocytes assessed as inhibition of LPS-induced TNFaplha production preincubated for 15 mins followed by LPS addition and measured after 4 hrs by ELISA. It counts as functional, cell-based.
Data set [28] in a line: Cytotoxicity against LPS-induced human monocytes assessed as cell viability at 50 uM by tryphan blue staining based assay relative to control. On the set-up: species or system Monocyte. Conditions: read-out: Activity.

pIC50: −log10 of the molar value. In brackets after ≈: the same amount, converted by molar mass.

Consider `CCOc1cc(Cc2cnc(N)nc2N)cc(OCC)c1-n1cccc1` [EPIROPRIM], for which, in the data set with Mycobacterium leprae [1], the MIC (as a rule, the lowest concentration that inhibits growth of the organism) came out at 10 µg/mL (≈ 28.3 µM). Further, the Activity in the data set on Mycobacterium leprae [2] turned out to be 0 pg; in the data set with Mycobacterium leprae [3], 0 pmol; in the data set with Mycobacterium leprae [4] it was 0 pmol; in the data set on Mycobacterium leprae [5], 317 pg; in the data set with Mycobacterium leprae [6], 0 pg; with Mycobacterium leprae [7] it was 0.95 pg. Besides, the Activity with Mycobacterium leprae [8] was 0 pmol; with Mycobacterium leprae [9], 0 pg; in the data set on Mycobacterium leprae [10] it was 325 pg; in the data set with Mycobacterium leprae [11] it was 0.413 pmol; with Mycobacterium leprae [12] it was 0.82 pg; in the data set on Mycobacterium leprae [13], 0 pmol. Moreover, the Activity was 0 pg in the data set with Mycobacterium leprae [14]; 0.45 pmol in the data set with Mycobacterium leprae [15]; 0.88 pmol in the data set with Mycobacterium leprae [16]; 1.44 pmol with Mycobacterium leprae [17]; 0 pmol in the data set on Mycobacterium leprae [18]; 1.12 pmol in the data set on Mycobacterium leprae [19]. Further, the Activity in the data set on Mycobacterium leprae [20] is given as 0 pg; in the data set with Mycobacterium leprae [21], 283 pg; in the data set with Mycobacterium leprae [22] it was 0.73 pmol; with Mycobacterium leprae [23] it was 0 pmol; with Mycobacterium leprae [24] it was 0 pg; in the data set with Mycobacterium leprae [25], 331 pg.
For the compound `CCC1(N2C(=O)c3cccc([N+](=O)[O-])c3C2=O)C(=O)NC(=O)N(c2ccccc2)C1=O` (stereo not drawn), in the data set on Monocyte [26], the inhibition – broadly, the change of the read-out against control, counted positive when it falls – at 50 µM was less than 10%. Besides, in the data set with Monocyte [27], the pIC50 (as a rule, the negative decadic logarithm of the IC50, by convention in mol/L) is 2.52. Besides, in data set [28], the viability at 50 µM was 77%.
